Data on nine molecules can be found in US10975098B2, “Substituted aminothiazolopyrimidinediones for the treatment of virus infection” (Hoffmann-La Roche Inc., priority 2015, dated 2021).

In assay [1] the target is T1, human TLR8 (Homo sapiens, UniProt Q9NR97).
T1 sequence (Q9NR97 27-1041): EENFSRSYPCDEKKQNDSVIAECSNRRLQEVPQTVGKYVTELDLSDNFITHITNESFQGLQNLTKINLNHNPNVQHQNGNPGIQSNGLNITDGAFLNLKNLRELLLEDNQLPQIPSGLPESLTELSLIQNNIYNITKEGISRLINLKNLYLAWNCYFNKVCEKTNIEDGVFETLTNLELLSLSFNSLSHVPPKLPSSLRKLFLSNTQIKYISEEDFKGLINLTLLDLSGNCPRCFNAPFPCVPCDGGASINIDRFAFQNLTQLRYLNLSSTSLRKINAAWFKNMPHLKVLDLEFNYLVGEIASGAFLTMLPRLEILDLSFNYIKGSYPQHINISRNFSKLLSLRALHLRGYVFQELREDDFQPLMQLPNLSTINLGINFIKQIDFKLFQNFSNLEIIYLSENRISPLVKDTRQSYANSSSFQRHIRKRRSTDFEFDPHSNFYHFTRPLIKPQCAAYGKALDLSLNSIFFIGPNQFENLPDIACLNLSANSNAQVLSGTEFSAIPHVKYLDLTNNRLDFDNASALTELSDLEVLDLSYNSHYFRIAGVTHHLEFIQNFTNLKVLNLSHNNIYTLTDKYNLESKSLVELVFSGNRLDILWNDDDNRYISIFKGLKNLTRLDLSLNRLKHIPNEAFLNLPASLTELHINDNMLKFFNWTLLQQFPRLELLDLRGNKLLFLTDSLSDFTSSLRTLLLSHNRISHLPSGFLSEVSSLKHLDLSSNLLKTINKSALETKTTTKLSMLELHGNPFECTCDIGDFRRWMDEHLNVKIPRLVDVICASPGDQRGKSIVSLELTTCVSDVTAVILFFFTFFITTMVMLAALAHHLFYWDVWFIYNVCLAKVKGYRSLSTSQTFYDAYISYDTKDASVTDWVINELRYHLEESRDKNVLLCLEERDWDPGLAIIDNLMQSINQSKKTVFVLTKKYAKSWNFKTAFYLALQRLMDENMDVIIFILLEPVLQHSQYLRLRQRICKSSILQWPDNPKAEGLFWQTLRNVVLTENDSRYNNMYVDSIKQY
Briefly: HEK293-Blue-hTLR-8 cells assay (SEAP reporter). The format is cell-based. The settings on record: TLR8 agonism, 20 hours incubation, 1% DMSO. From the text:
HEK293-Blue-hTLR-8 cells assay:
(§1) A stable HEK293-Blue-hTLR-8 cell line was purchased from InvivoGen (Cat. #: hkb-htlr8, San Diego, Calif., USA). These cells were designed for studying the stimulation of human TLR8 by monitoring the activation of NF-κB. A SEAP (secreted embryonic alkaline phosphatase) reporter gene was placed under the control of the IFN-β minimal promoter fused to five NF-κB and AP-1-binding sites. The SEAP was induced by activating NF-κB and AP-1 via stimulating HEK-Blue hTLR8 cells with TLR8 ligands. Therefore the reporter expression was regulated by the NF-κB promoter upon stimulation of human TLR8. The cell culture supernatant SEAP reporter activity was determined using QUANTI-Blue™ kit (Cat. #: rep-qb 1, Invivogen, San Diego, Calif., USA) at a wavelength of 640 nm, a detection medium that turns purple to blue in the presence of alkaline phosphatase.
(§2) HEK293-Blue-hTLR8 cells were incubated at a density of 250,000-450,000 cells/mL in a volume of 180 μL in a 96-well plate in Dulbecco's Modified Eagle's medium (DMEM) containing 4.5 g/L glucose, 50 U/mL penicillin, […], […], 2 mM L-glutamine, 10% (v/v) heat-inactivated fetal bovine serum for 24 hours. Then the HEK293-Blue-hTLR-8 cells were incubated with addition of 20 μL test compound in a serial dilution in the presence of final DMSO at 1% and perform incubation under 37° C. in a CO2 incubator for 20 hours. Then 20 μL of the supernatant from each well was incubated with 180 μL Quanti-blue substrate solution at 37° C. for 1-3 hours and the absorbance was read at 620-655 nm using a spectrophotometer. The signalling pathway that TLR8 activation leads to downstream NF-κB activation has been widely accepted, and therefore similar reporter assay was also widely used for evaluating TLR8 agonist.
(§3) The compounds of the present invention were tested in the above assay for their TLR7 and TLR8 agonism activities as described herein and results are listed in Table 1.

Assay [2] concerns the target T2, human TLR7 (Homo sapiens, UniProt Q9NYK1).
T2 sequence (Q9NYK1 27-1049): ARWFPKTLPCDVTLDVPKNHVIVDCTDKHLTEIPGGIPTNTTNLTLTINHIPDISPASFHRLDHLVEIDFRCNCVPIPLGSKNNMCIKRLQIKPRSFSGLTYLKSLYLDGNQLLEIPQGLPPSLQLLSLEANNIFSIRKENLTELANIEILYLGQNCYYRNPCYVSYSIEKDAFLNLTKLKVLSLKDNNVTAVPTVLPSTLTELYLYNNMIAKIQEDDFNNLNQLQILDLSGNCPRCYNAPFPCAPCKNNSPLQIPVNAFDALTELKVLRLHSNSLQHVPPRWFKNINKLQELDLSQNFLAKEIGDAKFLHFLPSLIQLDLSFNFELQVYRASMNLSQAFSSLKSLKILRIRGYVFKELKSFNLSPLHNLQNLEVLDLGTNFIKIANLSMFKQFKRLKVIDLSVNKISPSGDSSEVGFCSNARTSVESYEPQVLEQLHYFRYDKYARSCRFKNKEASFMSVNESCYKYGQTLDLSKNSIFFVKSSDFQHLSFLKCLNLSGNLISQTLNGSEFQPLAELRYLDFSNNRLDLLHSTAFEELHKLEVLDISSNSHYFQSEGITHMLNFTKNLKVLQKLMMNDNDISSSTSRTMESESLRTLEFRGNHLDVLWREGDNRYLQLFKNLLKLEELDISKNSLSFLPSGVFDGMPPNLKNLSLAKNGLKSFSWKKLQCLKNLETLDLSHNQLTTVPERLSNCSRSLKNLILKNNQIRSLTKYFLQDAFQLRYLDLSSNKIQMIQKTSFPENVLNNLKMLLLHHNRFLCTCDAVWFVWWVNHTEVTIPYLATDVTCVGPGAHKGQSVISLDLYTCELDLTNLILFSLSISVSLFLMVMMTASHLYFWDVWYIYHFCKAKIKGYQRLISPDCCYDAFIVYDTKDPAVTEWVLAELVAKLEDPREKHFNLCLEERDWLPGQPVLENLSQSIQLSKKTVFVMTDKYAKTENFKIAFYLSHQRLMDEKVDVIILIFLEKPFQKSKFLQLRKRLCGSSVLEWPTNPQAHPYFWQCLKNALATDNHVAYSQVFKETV
Briefly: HEK293-Blue-hTLR-7 cells assay (SEAP reporter). It counts as cell-based. To be noted: TLR7 agonism, 20 hours incubation, 1% DMSO.
Text: HEK293-Blue-hTLR-7 Cells Assay
as §1, with “HEK293-Blue-hTLR-7” for “HEK293-Blue-hTLR-8”, “hkb-htlr7,” for “hkb-htlr8,”, “TLR7” for “TLR8”, “hTLR7” for “hTLR8”, “TLR7.” for “TLR8.”
as §2, with “HEK293-Blue-hTLR7” for “HEK293-Blue-hTLR8”, “250,000˜450,000” for “250,000-450,000”, “HEK293-Blue-hTLR-7” for “HEK293-Blue-hTLR-8”, “TLR7” for “TLR8”, “TLR7 agonist (Tsuneyasu Kaisho and Takashi Tanaka, Trends in Immunology, Volume 29, Issue 7, July 2008, Pages 329. sci; Hiroaki Hemmi et al, Nature Immunology 3, 2002, 196-200).” for “TLR8 agonist.”
as §3

As a reminder, the EC50 is the concentration giving half of the maximal effect. Lower therefore signals higher potency in that assay.

In the case of `CC[C@H](O)[C@@H]1C[C@@H]([C@@H](C)NC2CC2)[C@H](n2c(=O)sc3c(=O)[nH]c(N)nc32)O1` [Example 4, 5-Amino-3-[(2R,3S,5S)-3-[(1R)-1-(cyclopropylamino)ethyl]-5-[(1S)-1-hydroxypropyl]tetrahydrofuran-2-yl]-6H-thiazolo[4,5-d]pyrimidine-2,7-dione], the EC50 in assay [1] stood at 94 µM; in assay [2] it was 3.5 µM.
On the same counts, the results for `CC[C@H](O)[C@@H]1C[C@@H]([C@@H](C)NC)[C@H](n2c(=O)sc3c(=O)[nH]c(N)nc32)O1` [Example 2, 5-Amino-3-[(2R,3S,5S)-5-[(1S)-1-hydroxypropyl]-3-[(1R)-1-(methylamino)ethyl]tetrahydrofuran-2-yl]-6H-thiazolo[4,5-d]pyrimidine-2,7-dione] are 27 µM and 81 µM.
Taken in the same sequence, the figures for `CC[C@H](O)[C@@H]1C[C@@H]([C@H](C)NC)[C@H](n2c(=O)sc3c(=O)[nH]c(N)nc32)O1` [Example 6, 5-Amino-3-[(2R,3S,5S)-5-[(1S)-1-hydroxypropyl]-3-[(1S)-1-(methylamino)ethyl]tetrahydrofuran-2-yl]-6H-thiazolo[4,5-d]pyrimidine-2,7-dione] were 4 µM and 250 µM.
Taken in the same sequence, the figures for `CC[C@H](O)[C@@H]1C[C@@H]([C@H](C)NCc2ccccc2)[C@H](n2c(=O)sc3c(=O)[nH]c(N)nc32)O1` [Example 7, 5-Amino-3-[(2R,3S,5S)-3-[(1S)-1-(benzylamino)ethyl]-5-[(1S)-1-hydroxypropyl]tetrahydrofuran-2-yl]-6H-thiazolo[4,5-d]pyrimidine-2,7-dione] were 2.2 µM and 3.4 µM.
Regarding `CC[C@H](O)[C@@H]1C[C@@H]([C@@H](C)NCc2ccccc2)[C@H](n2c(=O)sc3c(=O)[nH]c(N)nc32)O1` [Example 5, 5-Amino-3-[(2R,3S,5S)-3-[(1R)-1-(benzylamino)ethyl]-5-[(1S)-1-hydroxypropyl]tetrahydrofuran-2-yl]-6H-thiazolo[4,5-d]pyrimidine-2,7-dione], the EC50 in assay [1] was determined as 85 µM; in assay [2], 3.7 µM.
Taken in the same sequence, the figures for `CC[C@H](O)[C@@H]1C[C@@H]([C@@H](C)N)[C@H](n2c(=O)sc3c(=O)[nH]c(N)nc32)O1` [Example 1-B, 5-amino-3-[(2R,3S,5S)-3-[(1R)-1-aminoethyl]-5-[(1S)-1-hydroxypropyl]tetrahydrofuran-2-yl]-6H-thiazolo[4,5-d]pyrimidine-2,7-dione] were 55 µM and 101 µM.
On the same counts, the results for `CCCN[C@H](C)[C@@H]1C[C@@H]([C@@H](O)CC)O[C@H]1n1c(=O)sc2c(=O)[nH]c(N)nc21` [Example 3, 5-Amino-3-[(2R,3S,5S)-5-[(1S)-1-hydroxypropyl]-3-[(1R)-1-(propylamino)ethyl]tetrahydrofuran-2-yl]-6H-thiazolo[4,5-d]pyrimidine-2,7-dione] are 125 µM and 7.7 µM.
On the same counts, the results for `CC[C@H](O)[C@@H]1C[C@@H]([C@@H](C)N(C)C)[C@H](n2c(=O)sc3c(=O)[nH]c(N)nc32)O1` [Example 8, 5-Amino-3-[(2R,3S,5S)-3-[(1R)-1-(dimethylamino)ethyl]-5-[(1S)-1-hydroxypropyl]tetrahydrofuran-2-yl]-6H-thiazolo[4,5-d]pyrimidine-2,7-dione] are 185 µM and 82 µM.
Regarding `CC[C@H](O)[C@@H]1C[C@@H]([C@H](C)N)[C@H](n2c(=O)sc3c(=O)[nH]c(N)nc32)O1` [Example 1-A, 5-Amino-3-[(2R,3S,5S)-3-[(1S)-1-aminoethyl]-5-[(1S)-1-hydroxypropyl]tetrahydrofuran-2-yl]-6H-thiazolo[4,5-d]pyrimidine-2,7-dione], the EC50 in assay [1] came out at 1.3 µM; in assay [2], 75 µM.
